Patent US20240269292A1
Entries after “also recorded” stand apart in the source; their conditions may differ. Non-standard residues stand in square brackets, D forms with d. Residues, ends and D or L forms follow the SMILES beside them. Dmt = Cc1cc(O)cc(C)c1C[C@H](N)C(=O)O

How the values were obtained:
rabbit RPE = assay: Rabbit ocular hydroquinone (HQ) model of dry AMD; type: in vivo
[1] = tested on: retinal pigment epithelium (RPE) cells; type: cell-based
Method: (§1) Cells are then treated with drug (or control phosphate-buffered saline (PBS) solution) and assayed for effects on mitochondrial dysfunction and other cellular changes.
Mitochondrial dysfunction is manifest as increased flavoprotein autofluorescence (upper panels) and as dysmorphology of the actin cytoskeleton (lower panels). […] EY005-stearyl was also preincubated with carboxyesterase (0.1 μg/mL) in separate media.
(§2) Mitochondrial dysfunction can be modeled using in vitro cell culture systems relevant to retinal disease. In one such system, retinal pigment epithelium (RPE) cells are cultured to post-confluence to establish a differentiated cell monolayer and are then assayed for mitochondrial dysfunction and effect of drugs for treatment of mitochondrial dysfunction (FIG. 5). In this model, mitochondrial dysfunction is induced by two exposures to nonlethal doses of hydroquinone (HQ) at day −3 and day 0. Hydroquinone (HQ), a well-known environmental toxicant ubiquitously present in Western lifestyle, is a biochemical inducer of mitochondrial dysfunction. When HQ is added to fully differentiated RPE cell cultures, HQ competes with mitochondrial ubiquinone, siphoning high-energy electrons from electron transport chain, which then reduces oxygen into superoxide, leading to cardiolipin peroxidation and mitochondrial dysfunction. Cells are then treated with a drug of interest (mitochondrial targeted peptide drug or a prodrug thereof) or control (phosphate-buffered saline (PBS) solution and assayed for effects on mitochondrial dysfunction, as measured by microscopy of flavoprotein autofluorescence (a measure of mitochondrial electron transport chain complex II decompensation) (FIG. 6).

[2] = In vivo kinetics after intravitreal Mito XR bolus in rabbit eyes, LC/MS
[3] = In vitro release kinetics of pilot formulation of Mito XR; type: physicochemical; conditions: same complexation agent and dispersal medium as Mito XR
[4] = tested on: retinal pigment epithelium (RPE) cells; assay: HQ-induced mitochondrial dysfunction in RPE cells (flavoprotein autofluorescence); type: cell-based; conditions: HQ-exposed RPE cells, versus elamipretide or native EY005
Method: as §1
as §2, with “When HQ is added to fully differentiated RPE cell cultures, HQ competes with mitochondrial ubiquinone, siphoning high-energy electrons from electron transport chain, which then reduces oxygen into superoxide, leading to cardiolipin peroxidation and mitochondrial dysfunction.” left out

RPE cells of rabbit eyes = assay: Rabbit ocular hydroquinone (HQ) model of dry AMD (DCFDA, vimentin, phalloidin on RPE flatmounts); type: in vivo
Method: FIG. 12 illustrates one example of a relevant animal model, specifically a rabbit-based protocol used to characterize the prodrugs of mitochondrial targeted tetrapeptides described herein. In this model, HQ (0.05 mL, 250 mM HQ) is injected into the vitreous cavity of rabbit eye on day 0 and day 1, and drug of interest (mitochondrial targeted peptide or prodrug thereof) or control (PBS) solution is injected into the same vitreous cavity of the rabbit eye at day 2. At day 4, the rabbit is euthanized, and eyes recovered for histologic analysis of retina and RPE flatmounts for various metrics, including cellular oxidation (DCFDA), as a surrogate of mitochondrial dysfunction, as well as for other cellular markers.
The rabbit hydroquinone (HQ) model of dry AMD (FIG. 12) was induced and flatmount of retinal pigment epithelium (RPE) were isolated.
Scores were determined by masked expert graders in at least 100 RPE cells from at least 3 eyes per condition.
A rabbit model of mitochondrial dysfunction is also used to assay bioactivity of MTT and prodrugs derived thereof. […] On day 2, the MTT (e.g., EY005, 15 μM) were injected IVT. On day 3, a fluorogenic dye that measures hydroxyl, peroxyl and other reactive oxygen species (e.g., DCFDA) was injected IVT, and tissues were collected 12 hours later. RPE flatmounts were processed for multiple readouts: oxidation byproducts (DCFDA, FIG. 13) and measures of RPE-associated extracellular matrix (cytosolic vimentin expression, FIG. 14), and RPE cell dysmorphology (i.e., actin cytoskeleton (phalloidin), FIG. 14). All were analyzed and quantified by microscopy.
For example, in the rabbit ocular hydroquinone model, systemic administration of the maximally tolerated human dose of mitochondrial-targeted peptide (EY005) allometrically scaled for the rabbit, only partially restores RPE actin cytoskeletal integrity (FIG. 15D). In contrast, IVT injection of EY005 results in downregulation of RPE vimentin expression (FIG. 14) and restoration of normal RPE actin cytoskeleton integrity (FIG. 15C). […] IVT EY005 treatment produced an approximately 75% reduction of oxidation byproducts. […] In this setting, retinal and RPE tissue levels achieved by IVT administration in rabbits are substantially higher than tissue levels obtained by SQ administration of the maximally tolerated human dose allometrically scaled for rabbits.

[5] = Hydrophobicity and aqueous solubility; type: physicochemical
[6] = tested on: retinal pigment epithelium (RPE) cells; assay: Dysregulated extracellular matrix (vimentin) in HQ-exposed RPE cells; type: cell-based; conditions: ≥5 μM
Method: as §1
as §2, with “When HQ is added to fully differentiated RPE cell cultures, HQ competes with mitochondrial ubiquinone, siphoning high-energy electrons from electron transport chain, which then reduces oxygen into superoxide, leading to cardiolipin peroxidation and mitochondrial dysfunction.” left out

[7] = tested on: retinal pigment epithelium (RPE) cells; assay: Actin cytoskeleton disorganization (phalloidin) in HQ-exposed RPE cells; type: cell-based; conditions: 5 μM
Method: as §1
as §2, with “When HQ is added to fully differentiated RPE cell cultures, HQ competes with mitochondrial ubiquinone, siphoning high-energy electrons from electron transport chain, which then reduces oxygen into superoxide, leading to cardiolipin peroxidation and mitochondrial dysfunction.” left out

mouse retinal tissues = assay: Mouse experimental retinal vein occlusion (RVO) model; type: in vivo
Description: Control, untreated mice show undetectable FP-AF and superoxide.
Control, untreated mice show normal synaptic markers.
FIGS. 11H-111 show visual function as quantified by electroretinogram (ERG) in mice treated with control, RVO and RVO with EY005 pretreatment or EY005 post-treatment. B-wave amplitudes were quantified from at least 5 eyes for each condition.

[8] = Accelerated in vitro release assay with complexation agents in methyl laurate; type: physicochemical; conditions: EY005 MTT formulated with various complexation agents, methyl laurate dispersal medium
Description: In all cases, all EY005 was rapidly released, in some cases within hours, and in all cases by day 3.

[9] = rabbit
Description: In some examples, cleavage and release of the free bioactive mitochondrial targeted tetrapeptide can be assessed following in vivo injection of the implant containing the prodrug within the extended release drug delivery system into the vitreous cavity or periocular tissues of a preclinical animal model (e.g., mouse, rat, rabbit, pig, etc.) (FIG. 29), wherein ocular tissue is recovered, and analytic methods such as HPLC or mass spectrometry can be used to calculate the amount of free bioactive mitochondrial targeted tetrapeptide and intact prodrug, at various timepoints after in vivo injection.

[10] = Theoretical in vivo release pharmacokinetics from XRDDS in vitreous cavity of rabbit eyes (FIGS. 31-32); conditions: theoretical data
Description: FIG. 31 illustrates theoretical in vivo release pharmacokinetic data comparing release kinetics of unmodified EY005 from the novel extended-release drug delivery system to that of two EY005 prodrugs, each of which is also formulated in the novel extended-release drug delivery system and injected into the vitreous cavity of rabbit eyes.
FIG. 32 illustrates theoretical in vivo release pharmacokinetic data comparing release kinetics of unmodified EY005 from the novel extended-release drug delivery system to that of two EY005 prodrugs, each of which is also formulated in the novel extended-release drug delivery system and injected into the vitreous cavity of rabbit eyes.

[11] = cultured RPE cells, dose-response
[12] = cultured RPE cells, high dose (≥5 μM)
[13] = rabbit, single IVT dose of 15 μg, 36 hrs. after drug treatment

## Cc1cc(O)cc(C)c1C[C@H](NC(=O)[C@H](N)CCCNC(=N)N)C(=O)N[C@@H](CCCCN)C(=O)N[C@@H](Cc1ccccc1)C(=O)O [EY005, H-d-Arg-DMT-Lys-Phe] (H-[dR][Dmt]KF-OH)
Rabbit RPE; 0.9 mg/kg subcutaneous once daily
  Reversal of RPE cytoskeletal dysmorphology: only partially effective
Rabbit RPE; intravitreal injection
  Efficacy of intravitreal versus subcutaneous administration: significantly more effective
[1]; HQ-exposed cultured RPE cells
  reversal of HQ-induced mitochondrial dysfunction (flavoprotein autofluorescence): reversal of induced mitochondrial dysfunction; also recorded: near complete reversal of mitochondrial dysfunction
[1]; HQ-exposed cultured RPE cells, dose-response
  efficacy and potency for reduction of flavoprotein autofluorescence compared to elamipretide: equivalent efficacy and potency; also recorded: comparable or equivalent dose-response and potency to elamipretide
[1]; [11]
  efficacy and potency for reversal of actin cytoskeleton disorganization compared to elamipretide: equivalent efficacy and potency
  efficacy and potency for reversal of dysregulated extracellular matrix (vimentin) compared to elamipretide: equivalent efficacy and potency
[1]; [12]
  reversal of actin cytoskeleton disorganization (phalloidin staining): reversal of actin cytoskeleton disorganization
  reversal of dysregulated extracellular matrix (vimentin expression): reversal of dysregulated extracellular matrix
[2]; bolus formulation of EY005 native peptide
  Residual drug in recovered bolus: no residual drug
[2]; through 7-week timepoint (Mito XR), week 3.5 (EY005 native peptide bolus)
  Retinal tissue concentrations: nearly undetectable
[3]
  release of native peptide formulated identically to Mito XR: extremely rapid release; also recorded: excessive release
[4]
  Potency for reversal of mitochondrial dysfunction relative to comparator: equipotent to elamipretide
RPE cells of rabbit eyes; rabbit HQ model, 15 μM IVT, within 36 hours of treatment
  reversal of mitochondrial dysfunction (oxidant species) in RPE of rabbit eyes: reduced oxidant species; also recorded: potent for reversal of mitochondrial dysfunction
RPE cells of rabbit eyes; rabbit HQ model, intravitreal 15 μM
  reversal of RPE cytoskeletal dysmorphology, intravitreal: near complete reversal of RPE cytoskeletal dysmorphology
RPE cells of rabbit eyes; rabbit HQ model, subcutaneous 0.9 mg/kg once daily
  reversal of RPE cytoskeletal dysmorphology, subcutaneous: only partial reversal of RPE cytoskeletal dysmorphology
RPE cells of rabbit eyes; rabbit, single IVT dose of 15 μg
  retinal toxicity: no retinal toxicity was observed
RPE cells of rabbit eyes; [13]
  reduction of cytoskeleton disorganization (phalloidin): approximately 80%
  reduction of oxidation byproducts (DCFDA): approximately 75%
  reversal of vimentin stain: approximately 90%
[5]
  Hydrophobicity: highly hydrophilic
[5]; native form
  Aqueous solubility: high aqueous solubility
[6]
  Reversal of dysregulated extracellular matrix (vimentin): reverses dysregulation of RPE extracellular matrix
[7]
  Reversal of actin cytoskeleton disorganization: restores normal RPE cell morphology
Mouse retinal tissues; mouse, 3 mg/kg BID subcutaneous
  markers of mitochondrial dysfunction (flavoprotein autofluorescence and superoxide) following RVO: significantly attenuates both markers of mitochondrial dysfunction
Mouse retinal tissues; mouse, 3 mg/kg BID subcutaneous, pretreatment or posttreatment
  synaptic markers (SV2, ZNP-1) in inner and outer plexiform layers following RVO: significantly prevents (pretreatment) and reverses (posttreatment) loss of synaptic markers
Mouse retinal tissues; mouse, pretreatment or post-treatment
  ERG B-wave amplitude following RVO: significantly prevented or reversed loss of B-wave amplitude
Mouse retinal tissues; systemic dose greater than the maximally tolerated dose in humans (allometrically scaled)
  efficacy in treatment of mouse model of RVO: partially effective
[8]
  time by which all EY005 was released: ≤ 3 days
[9]; IVT bolus formulation of EY005 native peptide
  residual drug in recovered bolus, native peptide formulation: contained no EY005 native peptide; also recorded: no residual drug in the recovered bolus
[9]; IVT identical bolus formulation containing EY005 native peptide
  time by which tissue concentrations were nearly undetectable: ≤ 3.5 week
[9]; IVT multiphasic colloidal suspension bolus of EY005 native peptide
  time beyond which EY005 tissue levels were not detectable: ≤ 21 days
[10]
  time to nearly complete release of unmodified EY005 from XRDDS: approximately 30 days
